The values that follow come from patent US7790947B2 (priority 2001, dated 2010).

One assay concerns the target hemoglobin (Homo sapiens, UniProt P68871). As to conditions: cited from earlier work.
Another assay deals with TSS-1 production. Kind of assay: Inhibition of TSS-1 production by salt or acid residue in absorbent foam. The class given is cell-based, S. aureus. Particulars: residual salt or acid in dried foam, between 0.1% and 10% weight percent of foam.
Assay [1] has as its system TSST-1 toxin production by S. aureus. Particulars: cited from earlier work.
For a further assay, the target named is TSST-1 toxin (Staphylococcus aureus, UniProt P06886). As to conditions: mechanism unknown; cited from earlier work.
Chain of TSST-1 toxin (P06886 41-234 limits assumed): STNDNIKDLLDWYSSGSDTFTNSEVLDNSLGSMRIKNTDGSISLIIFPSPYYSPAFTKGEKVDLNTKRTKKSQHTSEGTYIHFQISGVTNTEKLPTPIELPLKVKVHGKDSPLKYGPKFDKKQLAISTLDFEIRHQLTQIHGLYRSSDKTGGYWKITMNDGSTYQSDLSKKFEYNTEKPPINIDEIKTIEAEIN

Chain of hemoglobin (P68871 2-147 limits assumed): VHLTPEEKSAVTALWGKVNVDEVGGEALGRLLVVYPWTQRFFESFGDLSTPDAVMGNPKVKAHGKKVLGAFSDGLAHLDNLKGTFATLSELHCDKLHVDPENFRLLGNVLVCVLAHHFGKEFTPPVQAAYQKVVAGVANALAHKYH
Chain of hemoglobin (P69905 2-142 partner limits assumed): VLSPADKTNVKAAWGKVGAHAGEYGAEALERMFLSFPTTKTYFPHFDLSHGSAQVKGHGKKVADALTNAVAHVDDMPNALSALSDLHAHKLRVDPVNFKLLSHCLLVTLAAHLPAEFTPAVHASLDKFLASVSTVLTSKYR

As to `O=C(O)C(COP(=O)(O)O)OP(=O)(O)O` (stereo not drawn) [BPG, 2,3-bisphosphoglycerate], the “lowering of the affinity of oxygen for hemoglobin (factor)” value on hemoglobin was 26.
As for `[Ca+2].[Cl-].[Cl-]` [CaCl2], in the assay with TSS-1 production, the “inhibition of TSS-1 production” value is on record as “inhibit TSS-1 production”.
As to `[Cl-].[Cl-].[Mg+2]` [MgCl2], the “inhibition of TSS-1 production” value with TSS-1 production is on record as “inhibit TSS-1 production”.
Consider `O=C1O[C@H]([C@@H](O)CO)C(O)=C1O` [ascorbic acid], for which the “inhibition of TSS-1 production” value with TSS-1 production is reported as “inhibit TSS-1 production”. The “effect on toxin (TSST-1) production by S. aureus” value (shortened to “effect on toxin”) in assay [1] was “reduce toxin production and/or deactiviate the toxin TSST-1”. At TSST-1 toxin, the “deactivation of the toxin” value is recorded as “deactivates the toxin”.
As for `OCC(O)CO` [glycerol], the “effect on toxin” value in assay [1] is recorded as “reduce toxin production and/or deactiviate the toxin TSST-1”.
Take `O=C1O[C@H]([C@@H](O)CO)C([O-])=C1O.[Na+]` [sodium ascorbate]: in the assay on TSS-1 production, the “inhibition of TSS-1 production” value is recorded as “inhibit TSS-1 production”.
On to tocopherol, for which the “effect on toxin” value in assay [1] is “reduce toxin production and/or deactiviate the toxin TSST-1”.
